The source of these data is patent US7119206B2, “Derivative of dihydro-dibenzo (a) anthracenes and their use as selective estrogen receptor modulators” (Eli Lilly and Company, priority 2002, dated 2006).

The test system of assay [1] is Ishikawa human endometrial tumor cells. The assay can be described thus: Ishikawa cell assay (PNPP readout), antagonist mode. Format: cell-based. The conditions noted are these: with 1 nM E2. The text has this: (§1) Ishikawa human endometrial tumor cells are maintained in MEM (minimum essential medium, with Earle's salts and L-Glutamine, Gibco BRL, Gaithersburg, Md.), supplemented with 10% fetal bovine serum (FBS) (V/V), (Gibco BRL). One day prior to assay, growth media is changed to assay medium, DMEM/F-12 (3:1) (Dulbecco's Modified Eagle Medium: Nutrient Mixture F-12, 3:1 Mixture, phenol red-free, Gibco BRL) supplemented with 5% dextran coated charcoal stripped fetal bovine serum (DCC-FBS) (Hyclone, Logen, Utah), L-Glutamine (2 mM), MEM sodium pyruvate (1 mM), HEPES (N-[2-hydroxyethyl]piperazine-N′-[2-ethanesulfonic acid] 2 mM) all from Gibco BRL). After an overnight incubation, ishikawa cells are rinsed with Dulbecco's Phosphate Buffered Saline (1×) (D-PBS) without Ca^+2 and Mg^+2 (Gibco BRL), and trypsinized by a 3 minute incubation with 0.25% Trypsin/EDTA, phenol red-free (Gibco BRL). Cells are resuspended in assay medium and adjusted to 250,000 cells/ml. Approximately 25,000 cells in a 100 ul media are added to flat-bottom 96 wells microculture plates (Costar 3596) and incubated at 37° C. in a 5% CO2 humidified incubator for 24 hours. The next day, serial dilutions of compounds are prepared in assay medium (at 6 times the final concentration in the assay). The assay is run in dual mode, agonist and antagonist modes. For the agonist mode, plates receive 25 μl/well of assay medium followed by 25 μl/well of diluted compounds (at 6× the final concentrations). For the antagonist mode, plates receive 25 μl/well of 6 nM E2 (β-Estradiol, Sigma, St. Louis, Mo.) followed by 25 μl/well of diluted compounds (at 6× the final concentrations). After an additional 48-hour incubation at 37° C. in a 5% CO2 humidified incubator, media is aspirated from wells and 100 μl fresh assay medium is added to each microculture. Serial dilutions of compounds are prepared and added to the cells as described above. After an additional 72 hour incubation at 37° C. in a 5% CO2 humidified incubator, the assay is quenched by removing media and rinsing plates twice in Dulbecco's Phosphate Buffered Saline (1×) (D-PBS) (Gibco BRL). The plates are dried for 5 min and frozen at −70° C. for at least 1 hour. The plates are then removed from the freezer and allowed to thaw at room temperature. To each well, 100 μl of 1-Step™ PNPP (Pierce Chemical Company, Rockford, Ill.) is added. After a 20-minute incubation, plates are read on a spectophotometer at 405 nm. The data is fitted to a linear interpolation to derive EC50 (for agonist mode) or IC50 (for antagonist mode) values. For the agonist mode, a % efficacy for each compound is calculated versus the response to Tamoxifen. For the antagonist mode, a % efficacy for each compound is calculated versus E2 (1 nM) alone.

For another assay, the target named is T1, ERbeta receptor (Homo sapiens, UniProt Q92731).
T1 construct: purchased PanVera
T1 sequence (Q92731 whole entry): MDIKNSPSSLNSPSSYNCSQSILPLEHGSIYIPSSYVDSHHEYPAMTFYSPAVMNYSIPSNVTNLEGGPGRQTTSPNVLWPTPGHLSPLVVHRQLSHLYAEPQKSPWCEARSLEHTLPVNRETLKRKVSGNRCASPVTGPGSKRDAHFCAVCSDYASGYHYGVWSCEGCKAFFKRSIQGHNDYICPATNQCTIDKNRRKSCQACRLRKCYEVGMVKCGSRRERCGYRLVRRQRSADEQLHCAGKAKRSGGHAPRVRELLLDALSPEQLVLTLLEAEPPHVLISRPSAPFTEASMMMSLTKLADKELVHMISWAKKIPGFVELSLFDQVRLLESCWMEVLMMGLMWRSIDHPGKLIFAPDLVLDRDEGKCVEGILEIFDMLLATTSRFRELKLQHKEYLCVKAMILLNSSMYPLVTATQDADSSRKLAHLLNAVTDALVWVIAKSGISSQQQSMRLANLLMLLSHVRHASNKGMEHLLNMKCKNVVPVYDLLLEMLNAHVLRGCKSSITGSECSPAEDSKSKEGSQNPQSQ
In words: ER beta competition binding assay (3H-Estradiol). The settings on record: 3H-Estradiol competition; IC50 converted to Ki using Cheng-Prusoff; read-out: ER binding Ki (ERβ). As to the method: (§2) Competition binding assay is run in a buffer containing 50 mM Hepes, pH 7.5, 1.5 mM EDTA, 150 mM NaCl, 10% glycerol, 1 mg/ml ovalbumin and 5 mM DTT, using 0.025 μCi per well ^3H-Estradiol(NEN #NET517 at 118 Ci/mmol, 1 mCi/ml), 10 ng/well ERAlpha or ERbeta receptor (PanVera). Competing compounds are added at 10 different concentrations. Non-specific binding is determined in the presence of 1 μM of 17-B Estradiol. The binding reaction (140 μl) is incubated for 4 hours at room temperature, then 70 μl of cold DCC buffer is added to each reaction (DCC buffer contains per 50 ml of assay buffer, 0.75 g of charcoal (Sigma) and 0.25 g of dextran (Pharmacia)). Plates are mixed 8 minutes on an orbital shaker at 4° C. Plates are then centrifuged at 3,000 rpm at 4° C. for 10 minutes. An aliquot of 120 μl of the mix is transferred to another 96-well, white flat bottom plate (Costar) and 175 μl of Wallac Optiphase “Hisafe 3” scintillation fluid is added to each well. Plates are sealed and shaken vigorously on an orbital shaker. After an incubation of 2.5 hrs, read plates in a Wallac Microbeta counter. […] The Kd for ^3H-Estradiol is determined by saturation binding to ER alpha and ER beta receptors. The IC50 values for compounds are converted to Ki using Cheng-Prusoff equation and the Kd determined by saturation binding assay.

The test system of assay [2] is Ishikawa human endometrial tumor cells. In words: Ishikawa cell assay (PNPP readout), agonist mode. The conditions noted are these: Homo sapiens, Ishikawa; for Emax: % efficacy versus the response to Tamoxifen, read-out: Ishikawa Agonist % Eff. Format: cell-based.
From the text: as §1

Assay [3] concerns MCF-7 breast adenocarcinoma cells. In words: MCF-7 proliferation assay (14C-thymidine), antagonist mode. The settings on record: Homo sapiens, MCF7, antagonist mode, with 10 pM E2. In kind it is cell-based. On the procedure:
MCF-7 breast adenocarcinoma cells (ATCC HTB 22) are maintained in MEM (minimal essential medium, phenol red-free, Gibco BRL) supplemented with 10% fetal bovine serum (FBS) (V/V), L-glutamine (2 mM), sodium pyruvate (1 mM), HEPES ((N-[2-hydroxyethyl]piperazine-N′-[2-ethanesulfonic acid]10 mM}, non-essential amino acids(0.1 mM)and Penicillin Streptomycin(1×). Seven days prior to assay, MCF-7 cells are switched to assay media which is the same as maintenance medium except supplemented with 10% dextran-coated charcoal-stripped fetal bovine serum (DCC-FBS) assay medium in place of 10% FBS. MCF-7 cells are removed from flasks using 10× Trypsin EDTA (phenol red free, Gibco BRL) and diluted to 1× in (Ca++/Mg++ free HBSS (phenol red-free). Cells are adjusted to 80,000 cells/ml in assay medium. Approximately 8,000 cells (100 μl) are added to each well in 96 well Cytostar T scintillation plates (Amersham) and incubated at 37° C. in a 5% CO2 humidified incubator for 24 hours to allow cell adherence and equilibration after transfer. Serial dilutions of drugs are prepared in assay medium at 4× the final desired concentration). A 50 μl aliquot of drug dilutions (at 4× the final assay concentration) is transferred to duplicate wells followed by 50 μl assay medium for the agonist mode or 50 μl of 40 pM of E2 for the antagonist mode to a final volume of 200 μl. For each of the agonist plates, a basal level (media) and a maximum stimulated level (with 1 μM E2) is determined. For each of the antagonist plates, a basal level (media) and a E2 (10 pM) alone control is determined. After an additional 48 hours at 37° C. in a 5% CO2 humidified incubator, 20 μl of assay medium containing 0.01 μCi of ^14C-thymidine (52 mCi/mmol, […], Amersham) is added to each well. The plates are incubated overnight in the same incubator and then counted on the Wallac Microbeta counter. […] For the agonist mode, an EC50 and percent of maximum E2 stimulation and concentration of maximum stimulation is calculated.

In the next assay the target is T2, ERAlpha receptor (Homo sapiens, UniProt P03372).
T2 construct: purchased PanVera
T2 sequence (P03372 1-595): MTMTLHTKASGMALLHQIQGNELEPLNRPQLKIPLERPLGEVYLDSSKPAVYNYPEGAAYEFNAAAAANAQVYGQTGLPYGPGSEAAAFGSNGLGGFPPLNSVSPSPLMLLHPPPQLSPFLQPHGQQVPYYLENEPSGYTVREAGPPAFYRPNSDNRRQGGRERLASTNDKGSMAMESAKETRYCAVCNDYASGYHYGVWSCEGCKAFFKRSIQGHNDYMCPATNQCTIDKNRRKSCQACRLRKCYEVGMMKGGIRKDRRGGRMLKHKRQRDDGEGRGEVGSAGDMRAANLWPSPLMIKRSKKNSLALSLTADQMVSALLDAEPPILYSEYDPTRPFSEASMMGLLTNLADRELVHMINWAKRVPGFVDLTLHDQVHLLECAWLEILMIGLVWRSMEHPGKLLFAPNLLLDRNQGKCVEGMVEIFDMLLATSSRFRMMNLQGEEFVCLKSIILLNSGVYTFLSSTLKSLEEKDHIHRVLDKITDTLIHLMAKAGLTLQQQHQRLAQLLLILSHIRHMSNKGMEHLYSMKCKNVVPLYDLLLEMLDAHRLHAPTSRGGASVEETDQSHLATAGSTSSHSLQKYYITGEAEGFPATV
In words: ER alpha competition binding assay (3H-Estradiol). The settings on record: 3H-Estradiol competition; IC50 converted to Ki using Cheng-Prusoff; read-out: ER binding Ki (ERα). On the procedure:
as §2

Structures can show the parent of a compound that is named as a salt.

Regarding `Oc1ccc2c3c(sc2c1)Cc1cccc(O)c1C3c1ccc(OCCN2CCCCC2)cc1` (stereo not drawn) [Example 3, 11-[4-(2-Piperidin-1-yl-ethoxy)-phenyl]-6,11-dihydro-benzo[b]naphtho[2,3-d]thiophene-3,10-diol trifluoroacetate], the IC50 (usually the point on the concentration scale where inhibition reaches its midpoint) in assay [1] is 682 nM; in assay [3] it was 42 nM. The Ki – broadly, the dissociation constant of the complex between target and ligand, obtained from inhibition or displacement – came out at 14 nM at ERbeta receptor and 3 nM on ERAlpha receptor. In assay [2], a half-maximal response (EC50) required 3 nM. Further, in assay [2], the Emax is 135%.
In the case of `Oc1ccc2c(c1)C(c1ccc(OCCN3CCCCC3)cc1)c1c(sc3cc(O)ccc13)C2` (stereo not drawn) [Example 4, 11-[4-(2-Piperidin-1-yl-ethoxy)-phenyl]-6,11-dihydro-benzo[b]naphtho[2,3-d]thiophene-3,9-diol], the IC50 in assay [1] came to 53 nM; in assay [3], 1 nM. The inhibition constant (Ki) at ERbeta receptor and on ERAlpha receptor was 1 nM throughout. Further, in assay [2], the EC50 (commonly the concentration at which the effect is half-maximal) worked out at 1 nM. For the same molecule, the Emax in assay [2] amounted to 56%.
For the molecule `Oc1ccc2c(c1)C(c1ccc(OCCN3CCCCC3)cc1)c1c(ccc3cc(O)ccc13)C2` (stereo not drawn) [Example 8, 12-[4-(2-Piperidin-1-yl-ethoxy)-phenyl]-7,12-dihydro-benzo[a]anthracene-3,10-diol], the IC50 in assay [1] was found to be 130 nM; in assay [3], 7 nM. In addition, the Ki at ERbeta receptor came out at 3 nM; on ERAlpha receptor, 1 nM. Besides, in assay [2], the EC50 came out at 3 nM. The Emax in assay [2] stood at 75%.
Consider `Oc1ccc2c3c(ccc2c1)Cc1cccc(O)c1C3c1ccc(OCCN2CCCCC2)cc1` (stereo not drawn) [Example 12, 12-[4-(2-Piperidin-1-yl-ethoxy)-phenyl]-7,12-dihydro-benzo[a]anthracene-3,11-diol], for which the IC50 in assay [1] is 582 nM; in assay [3], 68 nM. Moreover, the inhibition constant (Ki) at ERbeta receptor was found to be 40 nM; at ERAlpha receptor, 8 nM. The molecule also gave an EC50 in assay [2] of 28 nM. For the same molecule, the Emax in assay [2] came to 77%.
`Oc1ccc2c3c(ccc2c1)Cc1c(O)cccc1C3c1ccc(OCCN2CCCCC2)cc1` (stereo not drawn) [Example 13, 12-[4-(2-Piperidin-1-yl-ethoxy)-phenyl]-7,12-dihydro-benzo[a]anthracene-3,8-diol]: the 50% inhibitory concentration (IC50) worked out at 50 nM in assay [1] and 3 nM in assay [3]. Moreover, the inhibition constant (Ki) turned out to be 5 nM on ERbeta receptor and 1 nM at ERAlpha receptor. The same molecule yielded an EC50 in assay [2] of 1 nM. In assay [2], the Emax was found to be 121%.
